# According to DBAASP:
# Values joined by “and” are separate entries in the source; they are usually repeats but may differ in a detail not shown here. Equal entries are not always repeated.
# Legend:
# Assay in all cases: ≥ marks a high value that may be exact or a test limit, other limits are often not marked, values filed in µg/mL are converted to µM
# [1] = test system: Pseudomonas aeruginosa ATCC 47085
# [2] = test system: Staphylococcus aureus ATCC 25923
# [3] = test system: Candida albicans ATCC 24433
# [4] = test system: Candida parapsilosis ATCC 22019
# Escherichia coli = test system: Escherichia coli
# Staphylococcus aureus = test system: Staphylococcus aureus
# [5] = test system: Trichophyton rubrum ATCC 28189
# [6] = test system: Candida albicans NCTC 1467
# [7] = test system: Enterococcus faecalis NCTC 12697
# [8] = test system: Escherichia coli NCTC 10418
# [9] = test system: Klebsiella pneumoniae ATCC 43816
# [10] = test system: Pseudomonas aeruginosa ATCC 27853
# [11] = test system: Staphylococcus aureus NCTC 10788
# [12] = test system: Staphylococcus aureus NCTC 12493
# [13] = test system: Pseudomonas aeruginosa 253
# [14] = test system: Pseudomonas aeruginosa 910
# [15] = test system: Pseudomonas aeruginosa 919
# [16] = test system: Pseudomonas aeruginosa PAO1
# [17] = test system: Candida albicans ATCC 10231
# [18] = test system: Enterococcus faecalis ATCC 29212
# [19] = test system: Escherichia coli ATCC 25922
# [20] = test system: Pseudomonas aeruginosa ATCC 15422
# [21] = test system: Staphylococcus epidermidis KCTC 1917
# [22] = test system: Candida albicans ATCC 14053
# [23] = test system: Escherichia coli ATCC 11775
# [24] = test system: Micrococcus luteus ATCC 49732
# [25] = test system: Staphylococcus aureus ATCC 12600
# Escherichia coli MG1655 = test system: Escherichia coli MG1655
# [26] = test system: Klebsiella pneumoniae ATCC 700603
# [27] = test system: Pseudomonas aeruginosa ATCC 10145
compound,measurement,setting,value
CC[C@H](C)[C@H](NC(=O)[C@H](CCCN=C(N)N)NC(=O)[C@H](CCC(N)=O)NC(=O)[C@@H](NC(=O)[C@@H](NC(=O)[C@@H](N)CCCN=C(N)N)[C@@H](C)CC)C(C)C)C(=O)N[C@@H](CC(C)C)C(=O)N[C@@H](CCCCN)C(=O)N[C@@H](Cc1c[nH]c2ccccc12)C(=O)N[C@@H](CC(C)C)C(=O)N[C@@H](CCCCN)C(=O)N[C@@H](CCCCN)C(=O)N[C@@H](Cc1c[nH]c2ccccc12)C(=O)N[C@@H](Cc1ccc(O)cc1)C(=O)N[C@@H](CCCCN)C(=O)N[C@@H](CC(C)C)C(=O)NCC(=O)N[C@@H](CCCCN)C(N)=O [RIVQRILKWLKKWYKLGK],MIC,[1],27 µM
same,MIC,[2],13.6 µM
CC[C@H](C)[C@H](NC(=O)[C@H](CC(C)C)NC(=O)[C@H](CO)NC(=O)[C@@H](N)CCCN=C(N)N)C(=O)N[C@H](C(=O)N[C@@H](Cc1cnc[nH]1)C(=O)N[C@@H](CCC(N)=O)C(=O)N[C@@H](CCCN=C(N)N)C(=O)N[C@@H](CC(C)C)C(=O)N[C@@H](Cc1ccccc1)C(N)=O)C(C)C [RSLIVHQRLF],MIC,[3],≥ 315 µM
same,MIC,[4],≥ 315 µM
same,MIC,Escherichia coli,> 315 µM
same,MIC,Staphylococcus aureus,> 315 µM
same,MIC,[5],≥ 315 µM
CSCC[C@H](NC(=O)[C@H](CCC(=O)O)NC(=O)[C@H](CCCCN)NC(=O)[C@H](CC(C)C)NC(=O)[C@H](CCCCN)NC(=O)CNC(=O)[C@H](Cc1c[nH]c2ccccc12)NC(=O)[C@H](CC(C)C)NC(=O)[C@@H](N)CO)C(=O)N[C@@H](CC(C)C)C(=O)N[C@@H](C)C(=O)N[C@@H](C)C(=O)N[C@@H](C)C(=O)NCC(=O)N[C@@H](CCCCN)C(=O)N[C@@H](C)C(=O)N[C@H](C(=O)N[C@@H](C)C(=O)N[C@@H](CC(N)=O)C(=O)N[C@@H](C)C(=O)N[C@H](C(=O)N[C@@H](CC(N)=O)C(=O)NCC(=O)N[C@@H](CC(C)C)C(=O)N[C@@H](C)C(=O)N[C@@H](CC(N)=O)C(=O)N[C@@H](CCC(N)=O)C(N)=O)C(C)C)C(C)C [SLWGKLKEMLAAAGKAVANAVNGLANQ],MIC,[6],≥ 64 µM
same,MIC,[7],≥ 32 µM
same,MIC,[8],8 µM
same,MIC,[9],≥ 32 µM
same,MIC,[10],32 µM
same,MIC,[11],8 µM
same,MIC,[12],16 µM
CC[C@H](C)[C@H](N)C(=O)N[C@@H](CC(C)C)C(=O)N[C@@H](CCCCN)C(=O)N[C@@H](Cc1c[nH]c2ccccc12)C(=O)N[C@@H](CCCCN)C(=O)N[C@H](C(=O)N[C@@H](CCCCN)C(=O)N[C@@H](Cc1c[nH]c2ccccc12)C(=O)N[C@@H](Cc1c[nH]c2ccccc12)C(=O)N[C@@H](CCCCN)C(=O)N[C@@H](Cc1c[nH]c2ccccc12)C(=O)N[C@@H](Cc1ccccc1)C(=O)N[C@@H](CCCN=C(N)N)C(N)=O)[C@@H](C)O [ILKWKTKWWKWFR],MIC,[13],4 µM
same,MIC,[14],4 µM
same,MIC,[15],16 µM
same,MIC,[16],2 µM
CC[C@H](C)[C@@H]1NC(=O)[C@H](CC(C)C)NC(=O)[C@@H](NC(=O)[C@@H](NC(=O)[C@@H](NC(=O)[C@H](C)NC(=O)CNC(=O)[C@H](CC(C)C)NC(=O)[C@H](C)NC(=O)[C@@H](N)Cc2ccccc2)C(C)C)[C@@H](C)O)CSSC[C@@H](C(=O)N[C@@H](CCCCN)C(=O)N[C@H](C(=O)N[C@@H](CC(C)C)C(=O)N2CCC[C@H]2C(=O)N[C@@H](CCCCN)C(=O)N[C@@H](CC(C)C)C(=O)N[C@@H](Cc2ccccc2)C(=O)O)C(C)C)NC(=O)[C@H](CCCCN)NC(=O)[C@H]([C@@H](C)O)NC(=O)[C@H](CCCN=C(N)N)NC1=O [FALGAVTCLIRTKCKVLPKLF],MIC,[6],≥ 128 µM
same,MIC,[8],≥ 64 µM
same,MIC,[9],≥ 128 µM
same,MIC,[10],> 128 µM
same,MIC,[11],≥ 128 µM
same,MIC,[12],≥ 128 µM
CC(C)C[C@H](NC(=O)CNC(=O)[C@H](Cc1ccc(O)cc1)NC(=O)[C@H](C)NC(=O)[C@@H]1CCCN1C(=O)[C@H](CC(C)C)NC(=O)[C@H](CCC(=O)O)NC(=O)[C@H](Cc1ccccc1)NC(=O)[C@H](Cc1cnc[nH]1)NC(=O)[C@H](CO)NC(=O)[C@@H](N)CCCCN)C(=O)O [KSHFELPAYGL],MIC,[17],> 500 µM
same,MIC,[18],422 µM and 405 µM and 252 µM
same,MIC,[19],> 500 µM
same,MIC,[20],≥ 500 µM
same,MIC,[21],≥ 267 µM
CC(C)C[C@H](NC(=O)[C@H](CO)NC(=O)[C@@H](NC(=O)[C@@H](N)CCC(=O)O)C(C)C)C(=O)N[C@@H](CC(N)=O)C(=O)N[C@@H](CO)C(=O)NCC(=O)N[C@@H](Cc1ccc(O)cc1)C(=O)N[C@@H](Cc1ccc(O)cc1)C(=O)O [EVSLNSGYY],MIC,[22],≥ 291 µM
same,MIC,[23],≥ 97 µM
same,MIC,[24],≥ 97 µM
same,MIC,[25],≥ 97 µM
CC(C)C[C@H](NC(=O)[C@H](Cc1c[nH]c2ccccc12)NC(=O)[C@H](Cc1cnc[nH]1)NC(=O)[C@H](CCCCN)NC(=O)[C@H](CC(C)C)NC(=O)[C@H](C)NC(=O)[C@H](CC(C)C)NC(=O)[C@H](CCCCN)NC(=O)CNC(=O)[C@@H](NC(=O)[C@@H](NC(=O)[C@@H](N)CCCCN)[C@@H](C)O)C(C)C)C(=O)O [KTVGKLALKHWL],MIC,Escherichia coli MG1655,15 µM
same,MIC,[26],> 15 µM
same,MIC,[27],15 µM
same,MIC,[2],> 15 µM
CC[C@H](C)[C@H](NC(=O)[C@H](CCCN=C(N)N)NC(=O)[C@H](CCC(N)=O)NC(=O)[C@@H](NC(=O)[C@@H](NC(=O)[C@@H](N)CCCN=C(N)N)[C@@H](C)CC)C(C)C)C(=O)N[C@@H](C)C(=O)N[C@@H](CCCCN)C(=O)N[C@@H](Cc1c[nH]c2ccccc12)C(=O)N[C@@H](C)C(=O)N[C@@H](CCCCN)C(=O)N[C@@H](CCCCN)C(=O)N[C@@H](Cc1c[nH]c2ccccc12)C(=O)N[C@@H](Cc1ccc(O)cc1)C(=O)N[C@@H](CCCCN)C(=O)N[C@@H](C)C(=O)NCC(=O)N[C@@H](CCCCN)C(N)=O [RIVQRIAKWAKKWYKAGK],MIC,[1],≥ 55 µM
same,MIC,[2],13.7 µM
CC[C@H](C)[C@H](NC(=O)[C@H](CC(C)C)NC(=O)[C@H](C)NC(=O)[C@H](CO)NC(=O)[C@H](CCCN=C(N)N)NC(=O)[C@@H](N)CO)C(=O)N[C@H](C(=O)N[C@@H](Cc1cnc[nH]1)C(=O)N[C@@H](CCC(N)=O)C(=O)N[C@@H](CCCN=C(N)N)C(=O)N[C@@H](CC(C)C)C(=O)N[C@@H](Cc1ccccc1)C(N)=O)C(C)C [SRSALIVHQRLF],MIC,[3],≥ 280 µM
same,MIC,[4],≥ 280 µM
same,MIC,Escherichia coli,> 280 µM
same,MIC,Staphylococcus aureus,> 280 µM
same,MIC,[5],≥ 280 µM
CC[C@H](C)[C@H](NC(=O)[C@@H](N)Cc1ccccc1)C(=O)N[C@@H](CCCCN)C(=O)N[C@@H](Cc1c[nH]c2ccccc12)C(=O)N[C@@H](CCCN=C(N)N)C(=O)N[C@@H](Cc1ccccc1)C(=O)N[C@@H](CCCN=C(N)N)C(=O)N[C@@H](CCCN=C(N)N)C(=O)N[C@@H](Cc1c[nH]c2ccccc12)C(=O)N[C@@H](CCCCN)C(=O)N[C@@H](CCCCN)C(=O)N[C@@H](CCCN=C(N)N)C(=O)N[C@H](C(N)=O)[C@@H](C)O [FIKWRFRRWKKRT],MIC,[13],16 µM
same,MIC,[14],8 µM
same,MIC,[15],≥ 32 µM
same,MIC,[16],4 µM
CC(C)[C@H](NC(=O)[C@H](C)NC(=O)[C@@H](NC(=O)CNC(=O)[C@@H]1CCCN1)[C@@H](C)O)C(=O)N[C@@H](Cc1ccccc1)C(=O)N[C@@H](CCCCN)C(=O)O [PGTAVFK],MIC,[22],≥ 201 µM
same,MIC,[23],31 µM
same,MIC,[24],31 µM
same,MIC,[25],31 µM
